This is an account of results in patent US20090018151A1, “Topical Treatment of Peripheral diabetic complications” (priority 2007, published 2009).

This experiment deals with diabetic neuropathy. The experiment can be described thus: action of minoxidil on diabetic neuropathy (one foot minoxidil, other foot placebo, blinded). It counts as in vivo, human. The source says:
Example: action of minoxidil on diabetic neuropathy. A subject with a history of type II diabetes and painful symmetric diabetic neuropathy with stable blood sugars for at least 4 weeks prior to beginning therapy had minoxidil applied to one foot and placebo applied to the other foot in a blinded fashion. […] They had not taken any other pain medication 3 months prior to initiating treatment and during treatment. They also had significant skin dryness. Within 2 weeks the subject reported a VAS score improvement of 3 on the foot with the minoxidil treatment.

In the case of `Nc1cc(N2CCCCC2)nc(N)[n+]1[O-]` [minoxidil, 6-(1-piperidinyl)pyrimidine-2,4-diamine 3-oxide], under “foot treated with minoxidil vs placebo foot, subject had hair loss on the feet up to mid-calf”, the Re-growth of hair result was “Re-growth of hair was found on the side treated with minoxidil only”. Besides, the “Improvement of the dryness of the skin” value (foot treated with minoxidil vs placebo foot, subject had significant skin dryness) is given as “Improvement of the dryness of the skin was also noted on the side treated with minoxidil only”. In addition, the VAS score improvement (person, type II diabetes, painful symmetric diabetic neuropathy, minoxidil applied to one foot, within 2 weeks) was found to be 3.
